One block for each molecule: values may come before it.
Assay: photoluminescence quantum yield (fraction); solvent given as SMILES
[1] = in O=P(c1ccccc1)(c1ccccc1)c1ccccc1Oc1ccccc1P(=O)(c1ccccc1)c1ccccc1
[2] = in c1cc(-c2cccc(-n3c4ccccc4c4ccccc43)c2)cc(-n2c3ccccc3c3ccccc32)c1

Compound: C(=C\c1cc(/C=C/c2ccc(-n3c4ccccc4c4ccccc43)cc2)cc(/C=C/c2ccc(-n3c4ccccc4c4ccccc43)cc2)c1)/c1ccc(-n2c3ccccc3c3ccccc32)cc1
photoluminescence quantum yield (in C1CCOC1): 0.8
photoluminescence quantum yield (in CC#N): 0.83
photoluminescence quantum yield (in Cc1ccccc1): 0.59
photoluminescence quantum yield (in ClCCl): 0.75

Compound: CCn1c2ccccc2c2cc(-c3cc(-c4ccc5c(c4)c4ccccc4n5CC)ncn3)ccc21
photoluminescence quantum yield (in C1CCOC1): 0.44
photoluminescence quantum yield (in CCOC(C)=O): 0.8
photoluminescence quantum yield (in CN(C)C=O): 0.76
photoluminescence quantum yield (in Cc1ccccc1): 0.73
photoluminescence quantum yield (in ClCCl): 0.75

Compound: CC[N+]1(CC)CN2C(=N1)C(C(=O)O)=Cc1cc(SC)ccc12
photoluminescence quantum yield (in O): 0.308

Compound: Cc1cc(-c2nc(-c3ccccc3)nc(-c3ccccc3)n2)ccc1-n1c2ccccc2c2cc3c(cc21)C1c2ccccc2C3c2ccccc21
photoluminescence quantum yield (in Cc1ccccc1): 0.6
photoluminescence quantum yield [1]: 0.32

Compound: COc1ccccc1C1=NC2c3cccc4cccc(c34)C2N1c1ccccc1 (stereo not drawn)
photoluminescence quantum yield (in Cc1ccccc1): 0.01

Compound: CC1(C)c2ccccc2-n2c(-c3ccc(N4c5ccccc5Oc5ccccc54)cc3)nc3cccc1c32
photoluminescence quantum yield (in Cc1ccccc1): 0.31
photoluminescence quantum yield [1]: 0.71

Compound: Cc1nc(-c2ccc(-n3c4ccccc4c4ccccc43)cc2)cc(-c2ccc(-n3c4ccccc4c4ccccc43)cc2)n1
photoluminescence quantum yield (in C1CCOC1): 0.61
photoluminescence quantum yield (in CN(C)C=O): 0.73
photoluminescence quantum yield (in Cc1ccccc1): 0.65
photoluminescence quantum yield (in ClC(Cl)Cl): 0.61

Compound: c1ccc(/C(=C(\c2ccccc2)c2cc(-c3ccccc3)ccc2-c2ccc(-c3ccccc3)cc2)c2cc(-c3ccccc3)ccc2-c2ccc(-c3ccccc3)cc2)cc1
photoluminescence quantum yield (in C1CCOC1): 0.38

Compound: CC1=CC(C)=[N+]2C1=C(c1ccc(N(C)C)cc1)c1c(C)cc(C)n1[B-]2(F)F
photoluminescence quantum yield (in C1CCOC1): 0.014
photoluminescence quantum yield (in CC#N): 0.005
photoluminescence quantum yield (in CC(=O)C(C)(C)C): 0.015
photoluminescence quantum yield (in CC(C)=O): 0.009
photoluminescence quantum yield (in CCCCCC): 0.441
photoluminescence quantum yield (in CCOC(C)=O): 0.011

Compound: COc1ccc(-c2cc3c4c(c2)CCc2cc(-c5ccc(OC)cc5)cc(c2-4)CC3)cc1
photoluminescence quantum yield (in C1CCCCC1): 0.81
photoluminescence quantum yield (in C1CCOC1): 0.76
photoluminescence quantum yield (in CC#N): 0.6
photoluminescence quantum yield (in CCCCCC): 0.92
photoluminescence quantum yield (in CCO): 0.53
photoluminescence quantum yield (in CN(C)C=O): 0.55
photoluminescence quantum yield (in CO): 0.45
photoluminescence quantum yield (in Cc1ccccc1): 1
photoluminescence quantum yield (in ClC(Cl)Cl): 0.39
photoluminescence quantum yield (in ClCCl): 1

Compound: c1ccc2c(P(c3c4ccccc4cc4ccccc34)c3c4ccccc4cc4ccccc34)c3ccccc3cc2c1
photoluminescence quantum yield (in C1CCOC1): 0

Compound: Nc1ccccc1C(=O)O
photoluminescence quantum yield (in C1CCCCC1): 0.29
photoluminescence quantum yield (in CC#N): 0.56
photoluminescence quantum yield (in CC(C)=O): 0.31
photoluminescence quantum yield (in CCO): 0.59
photoluminescence quantum yield (in CS(C)=O): 0.64
photoluminescence quantum yield (in O): 0.6
photoluminescence quantum yield (in OCC(F)(F)F): 0.27
photoluminescence quantum yield (in c1ccccc1): 0.39

Compound: O=C(O)C1=C/C(=C/C=[N+]2/c3cc(O)c(C[C@@H]4O[C@H](CO)[C@@H](O)C(O)[C@H]4O)cc3C[C@H]2C(=O)O)C[C@@H](C(=O)O)N1 (stereo partly drawn)
photoluminescence quantum yield (in CO): 0.0013
photoluminescence quantum yield (in O): 0.0007
photoluminescence quantum yield (in OCCO): 0.0046
photoluminescence quantum yield (in [2H]O[2H]): 0.0011

Compound: Cc1ccc(C2=C3C=CC([Te]c4ccccc4)=[N+]3[B-](F)(F)n3c([Te]c4ccccc4)ccc32)cc1
photoluminescence quantum yield (in C1CCOC1): 0.01

Compound: CC1=CC(c2ccc3ccccc3c2)=[O+][B-]2(OC(=O)C(=O)O2)O1
photoluminescence quantum yield (in CC#N): 0.03
photoluminescence quantum yield (in ClC(Cl)(Cl)Cl): 0.06

Compound: CCCCCCC(CCCCCC)N1C(=O)c2cccc3c(-c4ccccc4)ccc(c23)C1=O
photoluminescence quantum yield (in CCCCCC): 0.076
photoluminescence quantum yield (in CCCCCCCCCCCCCC): 0.094
photoluminescence quantum yield (in CCCCCCCCCCCO): 0.76
photoluminescence quantum yield (in CCCCO): 0.95
photoluminescence quantum yield (in CN(C)C=O): 0.74
photoluminescence quantum yield (in Cc1ccccc1): 0.5
photoluminescence quantum yield (in ClC(Cl)Cl): 0.78

Compound: Nc1n[n+]([O-])c2ccccc2[n+]1[O-]
photoluminescence quantum yield (in CC#N): 0.006
photoluminescence quantum yield (in O): 0.0033

Compound: CC(C)(C)c1ccc2ccc3cc(-c4ccc5c(-c6ccc7c(ccc8ccc(C(C)(C)C)cc87)c6)cc6c7cc(-c8ccc9c(ccc%10ccc(C(C)(C)C)cc%109)c8)ccc7c(-c7ccc8c(ccc9ccc(C(C)(C)C)cc98)c7)cc6c5c4)ccc3c2c1
photoluminescence quantum yield (in ClCCl): 0.781

Compound: O=C(c1ccncc1)c1ccc(-n2c3ccc(-n4c5ccccc5c5ccccc54)cc3c3cc(-n4c5ccccc5c5ccccc54)ccc32)cc1
photoluminescence quantum yield (in Cc1ccccc1): 0.243
photoluminescence quantum yield [2]: 0.96

Compound: Brc1cnc(-c2ccncc2)s1
photoluminescence quantum yield (in CO): 0.02

Compound: CC(=O)c1c2c(cc3cc(N(C)C)ccc13)CCC2
photoluminescence quantum yield (in C1CCCCC1): 0.08
photoluminescence quantum yield (in C1CCOC1): 0.34
photoluminescence quantum yield (in C1COCCO1): 0.38
photoluminescence quantum yield (in CC#N): 0.18
photoluminescence quantum yield (in CCO): 0.03
photoluminescence quantum yield (in CS(C)=O): 0.37
photoluminescence quantum yield (in Cc1ccccc1): 0.25
photoluminescence quantum yield (in ClC(Cl)Cl): 0.41
photoluminescence quantum yield (in ClCCl): 0.82

Compound: CN(C)c1ccc(C2=Nc3scc[n+]3[B-](F)(F)O2)cc1
photoluminescence quantum yield (in C1CCOC1): 0.99
photoluminescence quantum yield (in CC#N): 0.1
photoluminescence quantum yield (in Cc1ccccc1): 0.99
photoluminescence quantum yield (in ClCCl): 0.86

Compound: CC(C)(C)c1cc(C#Cc2ccc3c(C#Cc4cc(C(C)(C)C)cc(C(C)(C)C)c4)cc4c5cc(C#Cc6cc(C(C)(C)C)cc(C(C)(C)C)c6)ccc5c(C#Cc5cc(C(C)(C)C)cc(C(C)(C)C)c5)cc4c3c2)cc(C(C)(C)C)c1
photoluminescence quantum yield (in ClCCl): 0.626

Compound: CCN(CC)c1ccc(-c2ccc(-c3nc(N4CCOCC4)c4ccccc4n3)s2)cc1
photoluminescence quantum yield (in CC#N): 0.23
photoluminescence quantum yield (in Cc1ccccc1): 0.67

Further lines, with some results ahead:

photoluminescence quantum yield (in CO): 0.81
Compound: CC1=CC(/C=C/c2ccc(OCCCN=[N+]=[N-])cc2)=[N+]2C1=C(c1ccc(N3CCCCC3)cc1)c1c(C)cc(C)n1[B-]2(F)F

photoluminescence quantum yield (in ClCCl): 0.047
Compound: COc1cc(OC)c2cc(C#N)c(=N)oc2c1

photoluminescence quantum yield (in ClC(Cl)Cl): 0.72
Compound: CCC1=C(CC)C(C)=[N+]2C1=Cc1c(C)c3cc4c(cc3n1[B-]2(F)F)=[N+]1C(=Cc2c(CC)c(CC)c(C)n2[B-]1(F)F)C=4C

photoluminescence quantum yield (in C1CCOC1): 0.084
photoluminescence quantum yield (in CC#N): 0.002
photoluminescence quantum yield (in CN(C)C=O): 0.002
photoluminescence quantum yield (in ClC(Cl)Cl): 0.999
photoluminescence quantum yield (in c1ccccc1): 0.999
Compound: CN(C)c1ccc(C#Cc2ccc(C#Cc3ccc(C#Cc4ccccc4C#N)cc3C#N)cc2C#N)cc1

photoluminescence quantum yield (in CC#N): 0.031
photoluminescence quantum yield (in CO): 0.027
Compound: CN1c2ccccc2CCc2ccccc21

photoluminescence quantum yield (in CCCCCC): 0.74
Compound: F[B-]1(F)n2c(ccc2-c2ccccc2)C(C(F)(F)F)=C2C=CC(c3ccccc3)=[N+]21

photoluminescence quantum yield (in C1CCOC1): 0.55
photoluminescence quantum yield (in CC(C)O): 0.6
photoluminescence quantum yield (in CO): 0.54
photoluminescence quantum yield (in CS(C)=O): 0.31
photoluminescence quantum yield (in ClC(Cl)Cl): 0.32
photoluminescence quantum yield (in ClCCl): 0.37
Compound: Cc1ccc(-n2c(-c3ccccc3O)nc(-c3ccccc3O)c2-c2ccccc2O)cc1

photoluminescence quantum yield (in ClC(Cl)Cl): 0.24
Compound: O=C1[C@@H]2[C@H](C(=O)N1c1ccc3cc4ccccc4cc3c1)[C@@H]1C=C[C@H]2C1

photoluminescence quantum yield (in ClCCl): 0.03
Compound: CCCCCCCCOc1ccc(C#Cc2c3cc4ccccc4cc3c(C#Cc3ccc(F)cc3)c3cc4ccccc4cc23)cc1

photoluminescence quantum yield (in ClC(Cl)Cl): 0.33
Compound: Clc1ccc(-c2nc(-c3ccccc3)sc2N(c2ccccc2)c2ccccc2)cc1

photoluminescence quantum yield (in CO): 0.07
photoluminescence quantum yield (in O): 0.004
Compound: CN(C)c1ccc2c(c1)[Si](C)(C)C1=CC(=[N+](C)C)C=CC1=C2C#Cc1ccccc1

photoluminescence quantum yield (in ClCCl): 0.01
Compound: CCC1=C(C)C2=C(/C=C/c3ccc(OC)cc3)c3c(C)c(CC)c(C)n3[B-](F)(F)[N+]2=C1C

photoluminescence quantum yield (in C1CCCCC1): 0.717
photoluminescence quantum yield (in CCOC(C)=O): 0.233
photoluminescence quantum yield (in CN(C)C=O): 0.023
photoluminescence quantum yield (in CO): 0.002
photoluminescence quantum yield (in ClCCl): 0.325
Compound: CCN(CC)c1ccc2c(c1)oc(=O)c1cc3cnn(-c4ccccc4)c3nc12

photoluminescence quantum yield (in CCO): 0.582
Compound: Nc1ccc2nc3c4ccccc4c(=[NH2+])cc-3oc2c1

photoluminescence quantum yield [2]: 0.89
photoluminescence quantum yield (in c1ccc2c(c1)c1ccccc1n2-c1ccc2sc3ccc(-n4c5ccccc5c5ccccc54)cc3c2c1): 0.841
photoluminescence quantum yield (in c1ccc2c(c1)c1ccccc1n2-c1ccc2sc3ccc(-n4c5ccccc5c5cccnc54)cc3c2c1): 0.982
photoluminescence quantum yield (in c1ccc2c(c1)c1cccnc1n2-c1ccc2sc3ccc(-n4c5ccccc5c5cccnc54)cc3c2c1): 0.879
Compound: Cc1cc(-n2c3ccccc3c3ccccc32)c(-n2c3ccccc3c3ccccc32)cc1C#N

photoluminescence quantum yield (in C1CCOC1): 0.005
Compound: O=C(c1ccc(N2c3ccccc3Sc3ccccc32)cc1)c1ccc2sc3ccccc3c2c1
photoluminescence quantum yield (in c1ccc2c(c1)c1ccccc1n2-c1ccc(-c2ccc(-n3c4ccccc4c4ccccc43)cc2)cc1): 0.768

photoluminescence quantum yield (in ClCCl): 0.65
Compound: CCCCn1c2ccc(C#N)cc2c2cc(C#N)cc(-c3ccc(N(c4ccccc4)c4ccccc4)cc3)c21

photoluminescence quantum yield (in ClCCl): 0.03
Compound: CC(C)(C)NC(=O)c1cccc2ccc3c4ccccc4c4ccccc4c3c12

photoluminescence quantum yield (in ClCCl): 0.27
Compound: CC(C)(C)NC(=O)c1ccc(-c2cc3ccccc3s2)c2ccc3c4ccccc4c4ccccc4c3c12

photoluminescence quantum yield (in ClC(Cl)Cl): 0.08
Compound: N#Cc1c(C#N)c2cc(F)ccc2c2ccc(F)cc12

photoluminescence quantum yield (in CO): 0.58
photoluminescence quantum yield (in CS(C)=O): 0.63
Compound: CCC1=C(C)C2=Cc3c4ccccc4c4n3[B-](c3cc[n+](C)cc3)(Oc3ccccc3-4)[N+]2=C1C (stereo not drawn)

photoluminescence quantum yield (in CS(C)=O): 0.62
Compound: c1ccc(-c2nc3sc4cc5c(cc4c3s2)OCO5)cc1

photoluminescence quantum yield (in CC#N): 0.1
photoluminescence quantum yield (in CCCCCC): 0.1
photoluminescence quantum yield (in CCOC(C)=O): 0.11
photoluminescence quantum yield (in CO): 0.15
photoluminescence quantum yield (in ClCCl): 0.17
Compound: COC1=[N+]2C(=C(c3ccccc3)c3cc(SC#N)c(OC)n3[B-]2(F)F)C=C1SC#N

photoluminescence quantum yield (in ClCCl): 0.21
Compound: C(=C\c1ncc2ccccc2n1)/c1ccc(N2CCCCC2)cc1

photoluminescence quantum yield (in CC#N): 0.936
photoluminescence quantum yield (in CO): 0.98
Compound: COc1ccc(-n2nc(C#N)c(N3CCCC3)n2)cc1

photoluminescence quantum yield (in C1CCCCC1): 0.0073
photoluminescence quantum yield (in c1ccccc1): 0.001
Compound: CNc1ccc2c(c1)C(=O)c1ccccc1-2

Source: the Deep4Chem optical property database
